Data from patent publication US5093127A, “Preparation of FR115224 substrate for parenteral administration” (Fujisawa Pharmaceutical Co., Ltd., priority 1989, dated 1992).
Numbered stars: 1 amine (or outer) side, 2 acyl side, 3 side chain; on linkers, the order of the positions; unused ones are H or OH. Bridge positions count the residues as written; N and C are the ends. Square brackets hold non-standard residues; d marks the D form. Peptide text beside a SMILES is read from it. * marks the point of attachment. X2 = CN(/C(=C/c1ccc(O)cc1)C(=O)[*:2])[*:1]; aThr = C[C@H](O)[C@H](N)C(=O)O; X1 = CCCCCc1ccccc1CCC(=O)*

Tests used:
[1] = Solubility test of FR115224 substance in water with cyclodextrins; type: physicochemical; settings: for Solubility of FR115224 substance: distilled water, room temperature
Method: FR115224 substance (125 mg) was charged in 13 sample bottles, respectively and distilled water (2.5 ml) was added thereto.
Then, α-cyclodextrin, β-cyclodextrin, hydroxypropyl β-cyclodextrin or γ-cyclodextrin was charged to each of the sample bottles in amounts of […] (cyclodextrin content: 0.16% w/v), 2.5 mg (cyclodextrin content: 1% w/v) or 12.5 mg (cyclodextrin content: 5% w/v), respectively. No cyclodextrin was charged in one sample bottle, which was made control. After stirring at room temperature for 12 hours, the concentration of FR115224 substance in each aqueous phase was measured to determine the solubility of FR115224 substance.

[2] = 20° C.; cited from earlier work

Row | Structure (SMILES) | Effect of cyclodextrin on the solubility of FR115224 substance in water ([1]; conclusion from Table 1) | Solubility of FR115224 substance ([1]; no cyclodextrin (0 % w/v, control), stirred 12 hours) [% w/v] | Solubility of FR115224 substance ([1]; hydroxypropyl β-cyclodextrin 0.16 % w/v, 12 hours) [% w/v] | Solubility of FR115224 substance ([1]; hydroxypropyl β-cyclodextrin 1 % w/v, 12 hours) [% w/v] | Solubility of FR115224 substance ([1]; hydroxypropyl β-cyclodextrin 5 % w/v, 12 hours) [% w/v] | Solubility of FR115224 substance ([1]; α-cyclodextrin 0.16 % w/v, 12 hours) [% w/v] | Solubility of FR115224 substance ([1]; α-cyclodextrin 1 % w/v, 12 hours) [% w/v] | Solubility of FR115224 substance ([1]; α-cyclodextrin 5 % w/v, 12 hours) [% w/v] | Solubility of FR115224 substance ([1]; β-cyclodextrin 0.16 % w/v, 12 hours) [% w/v] | Solubility of FR115224 substance ([1]; β-cyclodextrin 1 % w/v, 12 hours) [% w/v] | Solubility of FR115224 substance ([1]; β-cyclodextrin 5 % w/v, 12 hours) [% w/v] | Solubility of FR115224 substance ([1]; γ-cyclodextrin 0.16 % w/v, 12 hours) [% w/v] | Solubility of FR115224 substance ([1]; γ-cyclodextrin 1 % w/v, 12 hours) [% w/v] | Solubility of FR115224 substance ([1]; γ-cyclodextrin 5 % w/v, 12 hours) [% w/v] | Increase of water solubility by inclusion compound with β-cyclodextrin [2]
1 | CCCCCc1ccccc1CCC(=O)N[C@@H]1C(=O)N(C)/C(=C/c2ccc(O)cc2)C(=O)N[C@@H](CC(C)C)C(=O)N[C@H](Cc2ccccc2)C(=O)N[C@@H]([C@H](C)O)C(=O)N[C@@H](CC(N)=O)C(=O)N[C@@H](CO)C(=O)O[C@@H]1C [FR115224 substance] (X1-T[X2]L[dF][aThr]NS; ester 1-C) | markedly increase | 0.003 | 0.009 | 0.06 | 0.49 | 0.008 | 0.03 | 0.14 | 0.013 | 0.11 | 0.34 | 0.006 | 0.03 | 0.16 | –
2 | C(=C\c1ccccc1)/CN1CCN(C(c2ccccc2)c2ccccc2)CC1 [Cinnarizine] | – | – | – | – | – | – | – | – | – | – | – | – | – | – | about 5 times
